According to patent US20250195521A1 (Revolution Medicines, Inc., priority 2020, published 2025):

What was measured:
Assay type in all cases: biochemical
[1] = target: KRAS G12V binding to BRAF RBD (Homo sapiens (Human), UniProt P01116+P62937, G12V); assay: Ras-Raf disruption/FRET/MOA assay, KRAS G12V; conditions: read-out: KRAS G12V FRET IC50
From the text: Note—The following protocol describes a procedure for monitoring disruption of K-Ras G12C(GMP-PNP) binding to BRAF^RBD by a compound of the invention. This protocol may also be executed substituting other Ras proteins or nucleotides.
The purpose of this biochemical assay was to measure the ability of test compounds to facilitate ternary complex formation between a nucleotide-loaded K-Ras isoform and Cyclophilin A; the resulting ternary complex disrupts binding to a BRAF^RBD construct, inhibiting K-Ras signaling through a RAF effector. Data is reported as IC50 values.
Compound was present in plate wells as a 10-point 3-fold dilution series starting at a final concentration of 30 μM. After incubation at 25° C. for 3 hours, a mixture of Anti-His Eu—W1024 and anti-GST allophycocyanin was then added to assay sample wells at final concentrations of 10 nM and 50 nM, respectively, and the reaction incubated for an additional 1.5 hours. […] Compounds that facilitate disruption of a K-Ras: RAF complex were identified as those eliciting a decrease in the TR-FRET ratio relative to DMSO control wells.

[2] = target: KRAS G12V (Homo sapiens (Human), UniProt P01116+P62937, G12V); assay: Ras-Raf disruption/FRET/MOA assay (BRAF RBD, Cyclophilin A); conditions: read-out: KRAS G12V FRET IC50
KRAS G12V, sequence (P01116 other isoform, or with tags, fused parts or gaps G12V): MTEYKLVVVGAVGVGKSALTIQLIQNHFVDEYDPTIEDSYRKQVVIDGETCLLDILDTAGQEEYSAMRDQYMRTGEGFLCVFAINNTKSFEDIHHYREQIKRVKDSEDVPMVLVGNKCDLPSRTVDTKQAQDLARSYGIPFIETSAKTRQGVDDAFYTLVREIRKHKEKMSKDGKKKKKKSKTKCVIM
KRAS G12V, sequence (P62937 whole entry): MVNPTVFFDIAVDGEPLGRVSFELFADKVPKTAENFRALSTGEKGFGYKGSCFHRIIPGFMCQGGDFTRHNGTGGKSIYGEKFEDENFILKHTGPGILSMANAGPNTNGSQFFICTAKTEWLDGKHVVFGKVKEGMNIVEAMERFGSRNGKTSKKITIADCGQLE
Summary of the method: (§1)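 TR-FRET readout: anti-His Eu-W1024 (10 nM) and anti-GST allophycocyanin (50 nM) added after 3 h, 25° C compound incubation, then 1.5 h more. Decrease in FRET ratio versus DMSO wells marks Ras:RAF disruption; IC50 reported.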

[3] = target: NRAS Q61K (Homo sapiens (Human), UniProt P01111+P62937, Q61K); assay: as above
NRAS Q61K, sequence (P01111 whole entry Q61K): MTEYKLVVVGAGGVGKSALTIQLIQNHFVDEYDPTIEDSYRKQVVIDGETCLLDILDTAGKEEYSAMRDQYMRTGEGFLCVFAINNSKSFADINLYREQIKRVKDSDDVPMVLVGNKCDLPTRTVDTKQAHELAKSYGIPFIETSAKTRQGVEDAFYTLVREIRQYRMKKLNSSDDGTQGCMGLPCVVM
NRAS Q61K, sequence (P62937 whole entry): as the sequence (P62937 whole entry) above
Summary of the method: (§2)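 Ras-GMPPNP (12.5 nM), BRAF RBD (50 nM) and 25 μM Cyclophilin A were incubated with compound for 3 h at 25° C, then detected 1.5 h with anti-His Eu and anti-GST APC; IC50 values follow from the reduced TR-FRET ratio.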

[4] = target: KRAS G12D (Homo sapiens (Human), UniProt P01116+P62937, G12D); assay: as above; conditions: read-out: KRAS G12D FRET IC50
KRAS G12D, sequence (P01116 other isoform, or with tags, fused parts or gaps G12D): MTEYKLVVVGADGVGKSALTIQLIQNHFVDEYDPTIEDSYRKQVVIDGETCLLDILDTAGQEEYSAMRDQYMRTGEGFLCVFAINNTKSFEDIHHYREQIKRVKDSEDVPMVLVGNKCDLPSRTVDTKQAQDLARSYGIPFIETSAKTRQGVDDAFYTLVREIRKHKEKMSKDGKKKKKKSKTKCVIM
KRAS G12D, sequence (P62937 whole entry): as the sequence (P62937 whole entry) above
Summary of the method: as §1

[5] = target: NRAS G12C (Homo sapiens (Human), UniProt P01111+P62937, G12C); assay: as above; conditions: read-out: NRAS G12C FRET data IC50
NRAS G12C, sequence (P01111 whole entry G12C): as the sequence (P01111 whole entry Q61K) above, with G12C, K61Q counted along it
NRAS G12C, sequence (P62937 whole entry): as the sequence (P62937 whole entry) above
Summary of the method: as §2

[6] = target: KRAS Q61H (Homo sapiens (Human), UniProt P01116+P62937, Q61H); assay: as above
KRAS Q61H, sequence (P01116 other isoform, or with tags, fused parts or gaps Q61H): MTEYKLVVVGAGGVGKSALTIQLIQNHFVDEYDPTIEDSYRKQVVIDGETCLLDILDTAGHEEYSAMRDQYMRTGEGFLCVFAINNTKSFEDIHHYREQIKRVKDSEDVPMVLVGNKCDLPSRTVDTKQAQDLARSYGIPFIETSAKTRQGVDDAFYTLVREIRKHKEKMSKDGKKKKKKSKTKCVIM
KRAS Q61H, sequence (P62937 whole entry): as the sequence (P62937 whole entry) above
Summary of the method: as §1

[7] = target: KRAS G12S (Homo sapiens (Human), UniProt P01116+P62937, G12S); assay: as above; conditions: read-out: KRAS G12S FRET IC50
KRAS G12S, sequence (P01116 other isoform, or with tags, fused parts or gaps G12S): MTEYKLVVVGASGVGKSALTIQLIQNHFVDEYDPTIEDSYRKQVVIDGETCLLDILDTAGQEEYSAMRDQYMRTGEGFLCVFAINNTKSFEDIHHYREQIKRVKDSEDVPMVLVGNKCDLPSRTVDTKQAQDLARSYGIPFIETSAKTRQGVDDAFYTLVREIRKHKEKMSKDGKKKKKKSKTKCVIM
KRAS G12S, sequence (P62937 whole entry): as the sequence (P62937 whole entry) above
Summary of the method: as §1

[8] = target: KRAS G13D (Homo sapiens (Human), UniProt P01116+P62937, G13D); assay: as above; conditions: read-out: KRAS G13D FRET data IC50
KRAS G13D, sequence (P01116 other isoform, or with tags, fused parts or gaps G13D): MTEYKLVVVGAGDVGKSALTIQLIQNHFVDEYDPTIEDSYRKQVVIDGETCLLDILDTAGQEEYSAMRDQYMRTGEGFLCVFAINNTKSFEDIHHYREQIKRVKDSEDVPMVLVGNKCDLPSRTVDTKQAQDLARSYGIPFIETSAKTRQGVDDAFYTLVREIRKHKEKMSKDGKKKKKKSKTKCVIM
KRAS G13D, sequence (P62937 whole entry): as the sequence (P62937 whole entry) above
Summary of the method: as §1

[9] = target: NRAS WT (Homo sapiens (Human), UniProt P01111+P62937); assay: as above
NRAS WT, sequence (P01111 whole entry): as the sequence (P01111 whole entry Q61K) above, with K61Q counted along it
NRAS WT, sequence (P62937 whole entry): as the sequence (P62937 whole entry) above
Summary of the method: as §2

[10] = target: KRAS G13C (Homo sapiens (Human), UniProt P01116+P62937, G13C); assay: as above; conditions: read-out: KRAS G13C FRET IC50
KRAS G13C, sequence (P01116 other isoform, or with tags, fused parts or gaps G13C): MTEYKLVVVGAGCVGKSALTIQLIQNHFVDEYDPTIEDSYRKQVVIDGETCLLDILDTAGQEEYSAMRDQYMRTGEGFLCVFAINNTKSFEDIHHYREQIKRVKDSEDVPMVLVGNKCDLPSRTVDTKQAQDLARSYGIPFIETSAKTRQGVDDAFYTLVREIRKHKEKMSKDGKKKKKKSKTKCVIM
KRAS G13C, sequence (P62937 whole entry): as the sequence (P62937 whole entry) above
Summary of the method: as §1

[11] = target: NRAS Q61R (Homo sapiens (Human), UniProt P01111+P62937, Q61R); assay: as above
NRAS Q61R, sequence (P01111 whole entry Q61R): as the sequence (P01111 whole entry Q61K) above, with K61R counted along it
NRAS Q61R, sequence (P62937 whole entry): as the sequence (P62937 whole entry) above
Summary of the method: as §2

[12] = target: KRAS G12C (Homo sapiens (Human), UniProt P01116+P62937, G12C); assay: as above; conditions: read-out: KRAS G12C FRET IC50
Summary of the method: as §1

[13] = target: KRAS G12S binding to BRAF RBD (Homo sapiens (Human), UniProt P01116+P62937, G12S); assay: Ras-Raf disruption/FRET/MOA assay, KRAS G12S
KRAS G12S binding to BRAF RBD, sequence (P01116 other isoform, or with tags, fused parts or gaps G12S): as the sequence (P01116 other isoform, or with tags, fused parts or gaps G12S) above
KRAS G12S binding to BRAF RBD, sequence (P62937 whole entry): as the sequence (P62937 whole entry) above
Summary of the method: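 TR-FRET ratio drop relative to DMSO wells marks disruption of the Ras–RAF complex, reported as IC50. Compounds promote a Ras(nucleotide)–cyclophilin A ternary complex that blocks BRAF RBD binding; dosing was 10 points, 3-fold, top 30 μM final, 3 h at 25° C before detection.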

[14] = target: K-Ras G12C(GMP-PNP) binding to BRAF RBD (Homo sapiens (Human), UniProt P01116+P62937, G12C); assay: Disruption of BRAF RBD interaction with K-Ras (FRET / MOA assay), K-Ras G12C; conditions: read-out: KRAS G12C FRET IC50
K-Ras G12C(GMP-PNP) binding to BRAF RBD, sequence (P01116 other isoform, or with tags, fused parts or gaps G12C): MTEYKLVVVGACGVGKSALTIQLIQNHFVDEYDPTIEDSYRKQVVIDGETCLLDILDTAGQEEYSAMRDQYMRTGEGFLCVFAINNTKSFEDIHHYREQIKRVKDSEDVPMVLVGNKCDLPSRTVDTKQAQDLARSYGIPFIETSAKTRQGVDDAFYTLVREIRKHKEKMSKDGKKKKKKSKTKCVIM
K-Ras G12C(GMP-PNP) binding to BRAF RBD, sequence (P62937 whole entry): as the sequence (P62937 whole entry) above
Summary of the method: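 Cpd 10-pt 3-fold dilution, top 30 μM final; Ras/CypA/BRAF RBD mix 3 h, 25° C. Add anti-His Eu-W1024 10 nM + anti-GST APC 50 nM final, 1.5 h. Readout TR-FRET ratio decrease vs DMSO → IC50.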

[15] = target: KRAS WT binding to BRAF RBD (Homo sapiens (Human), UniProt P01116+P62937); assay: Ras-Raf disruption/FRET/MOA assay, KRAS WT
KRAS WT binding to BRAF RBD, sequence (P01116 other isoform, or with tags, fused parts or gaps): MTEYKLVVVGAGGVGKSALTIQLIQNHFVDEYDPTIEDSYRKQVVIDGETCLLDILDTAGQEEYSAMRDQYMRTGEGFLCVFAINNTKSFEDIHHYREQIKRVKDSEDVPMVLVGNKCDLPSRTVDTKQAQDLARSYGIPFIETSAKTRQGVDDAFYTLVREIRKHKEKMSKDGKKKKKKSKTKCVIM
KRAS WT binding to BRAF RBD, sequence (P62937 whole entry): as the sequence (P62937 whole entry) above
Summary of the method: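 Compounds (top 30 μM, 3-fold, 10 points) promote Cyclophilin A (25 μM) ternary complex with His6-Ras-GMPPNP (12.5 nM), disrupting GST-BRAF RBD (50 nM) binding; 3 h, 25°C, 25 mM HEPES pH 7.3, 100 mM NaCl, 5 mM MgCl2. Detection reagents (Eu anti-His 10 nM, APC anti-GST 50 nM) added for 1.5 h; IC50 reported.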

KRAS G12V binding to BRAF RBD, sequence (P01116 other isoform, or with tags, fused parts or gaps G12V): as the sequence (P01116 other isoform, or with tags, fused parts or gaps G12V) above
KRAS G12V binding to BRAF RBD, sequence (P62937 whole entry): as the sequence (P62937 whole entry) above

Row | IC50 [1] [nM] | IC50 [2] [nM] | IC50 [3] [nM] | IC50 [4] [nM] | IC50 [5] [nM] | IC50 [6] [nM] | IC50 [7] [nM] | IC50 [8] [nM] | IC50 [9] [nM] | IC50 [10] [nM] | IC50 [11] [nM] | IC50 [12] [nM] | IC50 [13] [nM] | IC50 [14] [nM] | IC50 [15] [nM] | SMILES
1 | 10 to 100 | 1000 to 10000 | 100 to 1000 | 1000 to 10000 | 100 to 1000 | 100 to 1000 | 1000 to 10000 | 1000 to 10000 | 100 to 1000 | 1000 to 10000 | 1000 to 10000 | 100 to 1000 | 10 to 100 | < 10 | 10 to 100 | CCn1c(-c2cccnc2[C@H](C)OC)c2c3cc(ccc31)-c1csc(n1)C[C@H](NC(=O)[C@H](C(C)C)N(C)C(=O)N1CC[C@]3(CCNC3=O)C1)C(=O)N1CCC[C@H](N1)C(=O)OCC(C)(C)C2 [Compound A479]
2 | 10 to 100 | 100 to 1000 | 100 to 1000 | 1000 to 10000 | 100 to 1000 | 100 to 1000 | 100 to 1000 | 100 to 1000 | 100 to 1000 | 100 to 1000 | 100 to 1000 | 100 to 1000 | 10 to 100 | 10 to 100 | 10 to 100 | CCn1c(-c2cccnc2[C@H](C)OC)c2c3cc(ccc31)-c1csc(n1)C[C@H](NC(=O)[C@H](C(C)C)N(C)C(=O)N1CC3(CCN(C)C3)C1)C(=O)N1CCC[C@H](N1)C(=O)OCC(C)(C)C2 [Compound A602]

More lines, now with the values behind:

Row | SMILES | IC50 [1] [nM] | IC50 [2] [nM] | IC50 [3] [nM] | IC50 [4] [nM] | IC50 [5] [nM] | IC50 [6] [nM] | IC50 [7] [nM] | IC50 [8] [nM] | IC50 [9] [nM] | IC50 [10] [nM] | IC50 [11] [nM] | IC50 [12] [nM] | IC50 [13] [nM] | IC50 [14] [nM] | IC50 [15] [nM]
3 | CCn1c(-c2cccnc2[C@H](C)OC)c2c3cc(ccc31)-c1csc(n1)C[C@H](NC(=O)[C@H](C(C)C)N(C)C(=O)N1CCC[C@H](N(C)C)CC1)C(=O)N1CCC[C@H](N1)C(=O)OCC(C)(C)C2 [Compound A493] | 10 to 100 | 100 to 1000 |  | 100 to 1000 | 10 to 100 | 10 to 100 | 100 to 1000 | 100 to 1000 | 10 to 100 | 100 to 1000 | 100 to 1000 | 10 to 100 | 10 to 100 | 10 to 100 | 10 to 100
4 | CCn1c(-c2cccnc2[C@H](C)OC)c2c3cc(ccc31)-c1csc(n1)C[C@H](NC(=O)[C@H](C(C)C)N(C)C(=O)N(C)C1(C)COC1)C(=O)N1CCC[C@H](N1)C(=O)OCC(C)(C)C2 [Compound A527] | 10 to 100 | 1000 to 10000 | 100 to 1000 | 1000 to 10000 | 100 to 1000 | 100 to 1000 | 100 to 1000 | 1000 to 10000 | 100 to 1000 | 1000 to 10000 | 100 to 1000 | 100 to 1000 | 10 to 100 | < 10 | 10 to 100
5 | CCn1c(-c2cccnc2[C@H](C)OC)c2c3cc(ccc31)-c1csc(n1)C[C@H](NC(=O)[C@H](C(C)C)N(C)C(=O)N1CCN3C(=O)CN(C)C[C@H]3C1)C(=O)N1CCC[C@H](N1)C(=O)OCC(C)(C)C2 [Compound A537] | 10 to 100 | 100 to 1000 |  | 100 to 1000 | 10 to 100 | 10 to 100 | 10 to 100 | 100 to 1000 | 10 to 100 | 100 to 1000 | 100 to 1000 | 10 to 100 | 10 to 100 | 10 to 100 | 10 to 100
